In ChEMBL document CHEMBL1201862, “PubChem BioAssay data set” (2004):
Active and inactive are the calls of the source. Rule as the data show it, for most assays here: actives have a measured EC50 and inactives only a lower limit.

Columns and labels:
[1] = target: T1, Heat shock factor protein 1 (Mus musculus, UniProt P38532); experiment: inhibition of MG132-induced HSE-luciferase signal, confirmation, cell-based, NIH3T3, luminescence, dose retest (AID 2382); type: functional;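 also: NIH3T3 fibroblasts with HSF1-driven luciferase reporter stressed by proteasome inhibitor MG132; luminescence from HSF1-driven luciferase expression after 8 hours of MG132 stress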
T1 sequence (P38532 whole entry): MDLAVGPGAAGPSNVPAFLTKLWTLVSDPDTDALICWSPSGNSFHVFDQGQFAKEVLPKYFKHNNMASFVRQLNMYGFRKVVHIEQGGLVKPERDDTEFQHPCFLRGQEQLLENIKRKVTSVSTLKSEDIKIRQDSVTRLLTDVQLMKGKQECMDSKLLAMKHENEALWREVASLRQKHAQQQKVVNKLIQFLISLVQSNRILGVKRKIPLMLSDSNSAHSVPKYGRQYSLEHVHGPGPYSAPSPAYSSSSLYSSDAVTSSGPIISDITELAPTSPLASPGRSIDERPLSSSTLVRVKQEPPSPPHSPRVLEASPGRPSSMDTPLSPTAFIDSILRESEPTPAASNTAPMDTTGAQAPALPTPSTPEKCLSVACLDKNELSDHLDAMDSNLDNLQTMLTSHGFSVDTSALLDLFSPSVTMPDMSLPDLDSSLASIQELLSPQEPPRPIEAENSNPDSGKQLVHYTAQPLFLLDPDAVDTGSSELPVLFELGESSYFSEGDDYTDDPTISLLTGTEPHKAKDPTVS

[2] = HEp-2 cell cytotoxicity, dose response, cytotoxicity control for RSV inhibitor project, HTS (AID 2410); type: functional; conditions: human respiratory syncytial virus
[3] = target: T2, Zinc finger protein mex-5 (Caenorhabditis elegans, UniProt Q9XUB2); experiment: MEX-5/TCR-2 RNA interaction inhibitors, dose response, biochemical, C. elegans, fluorescence polarization (AID 1960)
T2 sequence (Q9XUB2 whole entry): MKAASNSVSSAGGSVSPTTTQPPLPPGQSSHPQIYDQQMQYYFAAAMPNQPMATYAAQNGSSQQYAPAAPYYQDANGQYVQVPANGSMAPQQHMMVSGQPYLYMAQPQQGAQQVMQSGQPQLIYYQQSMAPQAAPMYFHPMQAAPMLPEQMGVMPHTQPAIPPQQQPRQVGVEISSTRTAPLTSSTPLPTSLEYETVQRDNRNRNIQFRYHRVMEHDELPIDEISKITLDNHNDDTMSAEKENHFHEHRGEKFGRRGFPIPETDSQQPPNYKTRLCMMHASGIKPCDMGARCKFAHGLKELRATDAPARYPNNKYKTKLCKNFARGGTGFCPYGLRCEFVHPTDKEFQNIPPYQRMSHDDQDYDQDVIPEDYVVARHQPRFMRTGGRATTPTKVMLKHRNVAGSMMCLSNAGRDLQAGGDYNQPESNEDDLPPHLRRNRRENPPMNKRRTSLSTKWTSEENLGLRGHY

[4] = target: T3, RNA-binding protein pos-1 (Caenorhabditis elegans, UniProt G5EF15); experiment: inhibitors of POS-1/mex-3 RNA binding, dose response, biochemical, fluorescence polarization (AID 1964);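 also: purified POS-1 fused to maltose binding protein made in E. coli; potency of compounds blocking POS-1 binding to fluorescent RNA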
T3 sequence (G5EF15 whole entry): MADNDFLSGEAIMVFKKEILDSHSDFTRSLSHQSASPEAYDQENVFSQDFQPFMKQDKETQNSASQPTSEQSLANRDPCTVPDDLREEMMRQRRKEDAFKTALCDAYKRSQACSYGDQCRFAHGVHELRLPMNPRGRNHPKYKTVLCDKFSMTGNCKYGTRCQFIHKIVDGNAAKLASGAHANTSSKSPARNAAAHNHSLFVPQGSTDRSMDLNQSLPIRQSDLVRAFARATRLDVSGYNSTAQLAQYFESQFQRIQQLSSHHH

[5] = target: T4, Corticotropin-releasing factor receptor 2/Corticotropin-releasing factor-binding protein (Homo sapiens, UniProt P24387+Q13324); experiment: Dose Response confirmation of uHTS hits for small molecule antagonists of the CRF-binding protein and CRF-R2 receptor complex.; type: functional; conditions: read-out: IC50_Mean
T4 sequence (Q13324 whole entry): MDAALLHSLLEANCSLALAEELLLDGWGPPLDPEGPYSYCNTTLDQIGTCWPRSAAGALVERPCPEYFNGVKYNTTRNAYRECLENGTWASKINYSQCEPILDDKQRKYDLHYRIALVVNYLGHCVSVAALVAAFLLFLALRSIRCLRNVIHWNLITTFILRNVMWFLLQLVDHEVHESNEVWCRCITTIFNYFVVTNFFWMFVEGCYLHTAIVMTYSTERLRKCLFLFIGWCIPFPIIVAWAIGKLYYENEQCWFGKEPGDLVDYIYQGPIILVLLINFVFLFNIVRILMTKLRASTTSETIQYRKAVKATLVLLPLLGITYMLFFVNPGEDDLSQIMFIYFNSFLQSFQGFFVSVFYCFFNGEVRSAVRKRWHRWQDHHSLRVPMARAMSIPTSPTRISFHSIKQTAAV
T4 sequence (P24387 whole entry): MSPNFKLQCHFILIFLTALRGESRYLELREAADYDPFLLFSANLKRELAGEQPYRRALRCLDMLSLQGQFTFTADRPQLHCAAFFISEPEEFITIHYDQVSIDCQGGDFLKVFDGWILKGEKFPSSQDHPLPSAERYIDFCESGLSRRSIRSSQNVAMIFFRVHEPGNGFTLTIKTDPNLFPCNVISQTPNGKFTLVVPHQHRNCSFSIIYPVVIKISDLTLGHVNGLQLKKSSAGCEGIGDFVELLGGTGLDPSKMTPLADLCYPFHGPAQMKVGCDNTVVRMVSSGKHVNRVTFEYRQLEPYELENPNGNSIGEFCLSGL

[6] = target: T4, Corticotropin-releasing factor receptor 2/Corticotropin-releasing factor-binding protein; experiment: activators of CRF receptor 2 with binding protein – uHTS hits, confirmation (AID 602473); type: functional; conditions: read-out: EC50_Mean
[7] = target: T5, Replicative DNA helicase DnaB (Mycobacterium tuberculosis, UniProt P9WMR3); experiment: DnaB intein splicing inhibitors, dose response, biochemical, cell-free fluorescence (AID 449749); type: functional
T5 sequence (P9WMR3 whole entry): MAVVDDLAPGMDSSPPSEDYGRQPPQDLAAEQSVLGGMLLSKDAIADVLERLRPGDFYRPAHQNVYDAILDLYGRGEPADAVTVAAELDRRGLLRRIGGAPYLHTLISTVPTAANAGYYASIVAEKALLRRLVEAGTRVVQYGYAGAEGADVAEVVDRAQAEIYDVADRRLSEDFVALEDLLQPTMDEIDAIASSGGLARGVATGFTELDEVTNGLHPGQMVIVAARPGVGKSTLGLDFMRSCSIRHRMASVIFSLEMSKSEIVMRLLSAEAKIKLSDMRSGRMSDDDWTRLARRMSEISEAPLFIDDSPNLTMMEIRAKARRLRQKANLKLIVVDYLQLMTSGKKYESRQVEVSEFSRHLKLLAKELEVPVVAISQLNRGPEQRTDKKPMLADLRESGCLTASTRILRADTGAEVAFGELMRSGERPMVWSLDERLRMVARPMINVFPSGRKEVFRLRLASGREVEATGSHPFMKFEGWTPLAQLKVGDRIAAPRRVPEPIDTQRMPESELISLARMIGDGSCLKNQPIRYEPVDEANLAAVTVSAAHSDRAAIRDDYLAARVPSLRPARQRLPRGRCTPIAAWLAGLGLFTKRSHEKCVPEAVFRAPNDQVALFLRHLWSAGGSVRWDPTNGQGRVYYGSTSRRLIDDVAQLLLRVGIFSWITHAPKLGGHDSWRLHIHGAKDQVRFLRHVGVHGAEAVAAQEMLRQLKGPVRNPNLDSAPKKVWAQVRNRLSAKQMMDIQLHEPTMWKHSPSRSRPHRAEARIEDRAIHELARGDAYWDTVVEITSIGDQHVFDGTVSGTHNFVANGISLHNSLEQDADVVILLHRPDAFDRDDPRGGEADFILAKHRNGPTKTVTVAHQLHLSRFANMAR

Protein RecA = target: T6, Protein RecA (Mycobacterium tuberculosis, UniProt P9WHJ3); experiment: Fluorescence Cell-Free Homogeneous Dose Retest to Identify Inhibitors of RecA-Intein Splicing Activity. [Related pubchem assays (depositor defined):AID2097, AID2223, AID489010, AID492950]; type: functional
T6 sequence (P9WHJ3 whole entry): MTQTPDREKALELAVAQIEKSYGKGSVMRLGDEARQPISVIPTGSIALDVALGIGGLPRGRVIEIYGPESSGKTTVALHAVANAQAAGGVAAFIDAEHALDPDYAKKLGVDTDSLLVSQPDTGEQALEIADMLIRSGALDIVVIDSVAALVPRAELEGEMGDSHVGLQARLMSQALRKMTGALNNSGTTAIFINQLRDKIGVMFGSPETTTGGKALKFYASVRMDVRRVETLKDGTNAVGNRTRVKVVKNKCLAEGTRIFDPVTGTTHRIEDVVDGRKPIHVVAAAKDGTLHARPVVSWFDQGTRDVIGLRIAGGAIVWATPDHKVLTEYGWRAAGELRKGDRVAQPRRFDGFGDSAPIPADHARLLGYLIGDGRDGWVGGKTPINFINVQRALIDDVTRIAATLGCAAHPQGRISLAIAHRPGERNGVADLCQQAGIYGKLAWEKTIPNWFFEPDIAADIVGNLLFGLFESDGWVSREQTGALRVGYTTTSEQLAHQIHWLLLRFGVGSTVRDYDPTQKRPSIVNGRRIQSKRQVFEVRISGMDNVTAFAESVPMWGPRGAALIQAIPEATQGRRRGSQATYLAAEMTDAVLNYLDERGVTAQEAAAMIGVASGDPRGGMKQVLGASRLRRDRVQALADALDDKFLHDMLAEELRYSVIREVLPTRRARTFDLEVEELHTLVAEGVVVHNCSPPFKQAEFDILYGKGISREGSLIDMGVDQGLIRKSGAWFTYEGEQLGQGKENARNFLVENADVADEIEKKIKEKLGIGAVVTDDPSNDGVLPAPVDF

Row | SMILES | CC50 [2] | EC50 [3] | EC50 [4] | AC50 [7] | EC50 (Protein RecA) | further results
1 | CC1=Nc2ccc(C)c3nc(C)cc(c23)N1c1ccc(C)cc1 | > 50 µM (active) |  |  |  |  | EC50 [1]: > 195 µM (not active)
2 | COc1ccc(/C(C)=N/Nc2nc3ccccc3nc2C)cc1OC |  | 66.5 µM (inconclusive) | 5.07 µM (inconclusive) |  |  | 
3 | COC(=O)CCCC1=CC2=CC(=O)C(C)(OC(=O)C3CCCC3)C(=O)C2=CO1 (centres undefined) |  | 57.7 µM (inconclusive) | 23.3 µM (active) |  |  | 
4 | N#Cc1c(N)n(-c2cccc(C(=O)O)c2)c2nc3ccccc3nc12 |  | > 300 µM (not active) | > 300 µM (not active) |  |  | IC50 [5]: > 47.1 µM (inactive); EC50 [6]: 13.7 µM (active)
5 | O=C(NC(NC(=S)Nc1ccc(Cl)cc1Cl)C(Cl)(Cl)Cl)c1cccc([N+](=O)[O-])c1 (centres undefined) |  |  |  | 2.33 µM (active) | 3.3 µM (active) | 
6 | Cc1c(-c2nc[nH]n2)sc(C#N)c1-c1ccccc1 | 24.4 µM (active) |  |  |  |  | IC50 [5]: > 47.1 µM (inactive); EC50 [6]: > 53 µM (inactive)
7 | CCOP(=O)(OCC)C(Nc1cccc([N+](=O)[O-])c1)c1ccccc1 (centres undefined) |  | > 300 µM (not active) | > 300 µM (not active) |  |  | IC50 [5]: > 47.1 µM (inactive); EC50 [6]: > 53 µM (inactive)
8 | CC(=O)c1c(O)cc(O)cc1CC(=O)O |  | 190 µM (inconclusive) | > 300 µM (inconclusive) |  |  | 
9 | O=C1NC2=C(CCc3ccccc32)C(c2ccccc2)N1 (centres undefined) |  |  |  | 2.19 µM (active) | 1.67 µM (active) | 
10 | COC(=O)CNc1cccc(C(F)(F)F)c1 |  | > 300 µM (not active) | > 300 µM (not active) |  |  | 
11 | CC1=C(C#N)C(=O)N(C)C(=O)/C1=C\NNc1ccc(F)cc1 |  | > 300 µM (not active) | > 300 µM (not active) |  |  | 
12 | Cc1nn(Cc2ccccc2)c2c1C(c1ccco1)C(C#N)=C(N)O2 (centres undefined) |  |  |  | > 380 µM (inactive) | 3.15 µM (active) | 
13 | CCc1ccc(C2=NNC(=Nc3c(C)n(C)n(-c4ccccc4)c3=O)SC2)cc1 | 20.1 µM (active) |  |  |  |  | 
14 | Cc1nc2ccccc2c2c1C(=O)N(C(C)C)C2=O |  |  |  | 192 µM (active) | 0.851 µM (active) | 
15 | CC(Oc1ccc(Cl)cc1Cl)C(=O)Nc1cccc(O)c1 (centres undefined) | 27.2 µM (active) |  |  |  |  | 
16 | CSc1ccc(/C=N/n2nnnc2N)cc1 | 48.5 µM (active) |  |  |  |  | 
17 | O=C(CSc1nnc(-c2ccccc2Cl)o1)Oc1ccc(Br)cc1 |  |  |  | 1.42 µM (active) | 3 µM (active) | 
18 | O=C(c1ccccc1)c1c[nH]c(C(=O)C(Cl)(Cl)Cl)c1 |  |  |  | 21.7 µM (active) | 8.23 µM (active) | 
19 | Cc1nn(-c2ccccc2)c2c1C1(C(=O)N3c4c(cccc41)C(C)CC3(C)C)C(C#N)=C(N)O2 (centres undefined) |  |  |  | 4.61 µM (active) | 3.2 µM (active) | 
20 | O=C1N=C(Nc2cccc(O)c2)S/C1=C\c1cccc([N+](=O)[O-])c1 | > 50 µM (active) |  |  |  |  | 
21 | CC1(C)C(=O)NCCN1C(=O)CSc1nccc(-c2ccc(Br)cc2)n1 | 34.1 µM (active) |  |  |  |  | 
22 | CSc1cccc(NC(=O)N2CCc3ccc(NC(=O)c4ccccn4)cc3C2)c1 | 14.4 µM (active) |  |  |  |  | 
23 | Cc1c(OCC(=O)NCC(O)c2ccccc2)ccc2c3c(c(=O)oc12)CCCC3 (centres undefined) | 48.5 µM (active) |  |  |  |  | 
